# Test results from paper PMC6100082, “Pyridine-Ureas as Potential Anticancer Agents: Synthesis and In Vitro Biological Evaluation” (Molecules : A Journal of Synthetic Chemistry and Natural …, 2018).
# Key:
# Assay type in all cases: cell-based, human
# [1] = test system: NCI 58 cell line panel; experiment: NCI one-dose SRB assay, whole panel / subpanel summary; conditions: for inhibition at 10 µM: Homo sapiens, one dose, read-out: mean inhibition (mean % growth inhibition over NCI 58 cell line panel); for Mean Growth Percent: One Dose Mean Graph, 1.00E-5 Molar
# Experimental: (§1) The structures of all the newly prepared pyridine-ureas 8a–n were submitted to the National Cancer Institute (NCI) Developmental Therapeutic Program. Eight compounds 8b, 8d, 8e, 8i, 8j and 8l–n were selected to be examined for their in vitro growth inhibitory activity. The anticancer assays were carried out according to the protocol of the Drug Evaluation Branch, NCI, Bethesda. The selected pyridine-ureas were tested at one dose primary anticancer assay against a panel of approximately 58 cancer lines (concentration 10^−5 M). The tested human cancer cell lines emerged from nine different cancer subtypes: leukemia, colon, melanoma, ovarian, lung, CNS, renal, breast and prostate cancers. The sulforhodamine B (SRB) protein assay was adopted to estimate the cell viability and growth. The results were reported as mean-graph of the percentage growth of the treated cells, and presented as percentage growth inhibition (GI%) caused by the test compounds (Table 2).
# (§2) The anticancer assays were performed in accordance with the protocol of the Drug Evaluation Branch, NCI, Bethesda. A 48 h drug exposure protocol was used and sulforhodamine B (SRB) protein assay was applied to estimate the cell viability and growth, as reported earlier.
# [2] = test system: CCRF-CEM; experiment: NCI one-dose SRB assay (Leukemia); conditions: for Growth Percent: 1.00E-5 Molar; for inhibition at 10 µM: Homo sapiens, read-out: Percentage growth inhibition (GI%)
# Experimental: as §1, §2
# [3] = test system: HL-60(TB); experiment: NCI one-dose SRB assay (Leukemia); conditions: for Growth Percent: 1.00E-5 Molar; for inhibition at 10 µM: Homo sapiens, read-out: Percentage growth inhibition (GI%)
# Experimental: as §1, §2
# [4] = test system: K-562; experiment: NCI one-dose SRB assay (Leukemia); conditions: for inhibition at 10 µM: Homo sapiens, K562, K-562, 10 μM, read-out: Percentage growth inhibition (GI%); for Growth Percent: K-562, 1.00E-5 Molar
# Experimental: as §1, §2
# [5] = test system: MOLT-4; experiment: NCI one-dose SRB assay (Leukemia); conditions: for inhibition at 10 µM: Homo sapiens, MOLT-4, 10 μM, read-out: Percentage growth inhibition (GI%); for Growth Percent: MOLT-4, 1.00E-5 Molar
# Experimental: as §1, §2
# [6] = test system: RPMI-8226; experiment: NCI one-dose SRB assay (Leukemia); conditions: for inhibition at 10 µM: Homo sapiens, RPMI-8226, 10 μM, read-out: Percentage growth inhibition (GI%); for Growth Percent: RPMI-8226, 1.00E-5 Molar
# Experimental: as §1, §2
# [7] = test system: SR; experiment: NCI one-dose SRB assay (Leukemia); conditions: for Growth Percent: 1.00E-5 Molar; for inhibition at 10 µM: Homo sapiens, read-out: Percentage growth inhibition (GI%)
# Experimental: as §1, §2
# [8] = test system: A549/ATCC; experiment: NCI one-dose SRB assay (Non-Small Cell Lung Cancer); conditions: for Growth Percent: 1.00E-5 Molar; for inhibition at 10 µM: Homo sapiens, read-out: Percentage growth inhibition (GI%)
# Experimental: as §1, §2
# [9] = test system: EKVX; experiment: as above; conditions: for Growth Percent: 1.00E-5 Molar; for inhibition at 10 µM: Homo sapiens, read-out: Percentage growth inhibition (GI%)
# Experimental: as §1, §2
# [10] = test system: HOP-62; experiment: as above; conditions: for Growth Percent: HOP-62, 1.00E-5 Molar; for inhibition at 10 µM: Homo sapiens, HOP-62, 10 μM, read-out: Percentage growth inhibition (GI%)
# Experimental: as §1, §2
# [11] = test system: HOP-92; experiment: as above; conditions: for Growth Percent: HOP-92, 1.00E-5 Molar; for inhibition at 10 µM: Homo sapiens, HOP-92, 10 μM, read-out: Percentage growth inhibition (GI%)
# Experimental: as §1, §2
# [12] = test system: NCI-H226; experiment: as above; conditions: for inhibition at 10 µM: Homo sapiens, NCI-H226, 10 μM, read-out: Percentage growth inhibition (GI%); for Growth Percent: NCI-H226, 1.00E-5 Molar
# Experimental: as §1, §2
# [13] = test system: NCI-H23; experiment: as above; conditions: for inhibition at 10 µM: Homo sapiens, NCI-H23, 10 μM, read-out: Percentage growth inhibition (GI%); for Growth Percent: NCI-H23, 1.00E-5 Molar
# Experimental: as §1, §2
# [14] = test system: NCI-H322M; experiment: as above; conditions: for Growth Percent: 1.00E-5 Molar; for inhibition at 10 µM: Homo sapiens, read-out: Percentage growth inhibition (GI%)
# Experimental: as §1, §2
# [15] = test system: NCI-H460; experiment: as above; conditions: for inhibition at 10 µM: Homo sapiens, NCI-H460, 10 μM, read-out: Percentage growth inhibition (GI%); for Growth Percent: NCI-H460, 1.00E-5 Molar
# Experimental: as §1, §2
# [16] = test system: NCI-H522; experiment: as above; conditions: for inhibition at 10 µM: Homo sapiens, NCI-H522, 10 μM, read-out: Percentage growth inhibition (GI%); for Growth Percent: NCI-H522, 1.00E-5 Molar
# Experimental: as §1, §2
# [17] = test system: LOX IMVI; experiment: NCI one-dose SRB assay (Melanoma); conditions: for Growth Percent: 1.00E-5 Molar; for inhibition at 10 µM: Homo sapiens, read-out: Percentage growth inhibition (GI%)
# Experimental: as §1, §2
# [18] = test system: MALME-3M; experiment: NCI one-dose SRB assay (Melanoma); conditions: for Growth Percent: 1.00E-5 Molar; for inhibition at 10 µM: Homo sapiens, read-out: Percentage growth inhibition (GI%)
# Experimental: as §1, §2
# [19] = test system: SK-MEL-28; experiment: NCI one-dose SRB assay (Melanoma); conditions: for inhibition at 10 µM: Homo sapiens, SK-MEL-28, 10 μM, read-out: Percentage growth inhibition (GI%); for Growth Percent: SK-MEL-28, 1.00E-5 Molar
# Experimental: as §1, §2
# [20] = test system: UACC-257; experiment: NCI one-dose SRB assay (Melanoma); conditions: for inhibition at 10 µM: Homo sapiens, UACC-257, 10 μM, read-out: Percentage growth inhibition (GI%); for Growth Percent: UACC-257, 1.00E-5 Molar
# Experimental: as §1, §2
# [21] = test system: 786-0; experiment: NCI one-dose SRB assay (Renal Cancer); conditions: for Growth Percent: 786-0, 1.00E-5 Molar; for inhibition at 10 µM: Homo sapiens, 786-0, 10 μM, read-out: Percentage growth inhibition (GI%)
# Experimental: as §1, §2
# [22] = test system: A498; experiment: NCI one-dose SRB assay (Renal Cancer); conditions: for Growth Percent: A498, 1.00E-5 Molar; for inhibition at 10 µM: Homo sapiens, A498, 10 μM, read-out: Percentage growth inhibition (GI%)
# Experimental: as §1, §2
# [23] = test system: RXF 393; experiment: NCI one-dose SRB assay (Renal Cancer); conditions: for inhibition at 10 µM: Homo sapiens, RXF 393, 10 μM, read-out: Percentage growth inhibition (GI%); for Growth Percent: RXF 393, 1.00E-5 Molar
# Experimental: as §1, §2
# [24] = test system: SN12C; experiment: NCI one-dose SRB assay (Renal Cancer); conditions: for Growth Percent: 1.00E-5 Molar; for inhibition at 10 µM: Homo sapiens, read-out: Percentage growth inhibition (GI%)
# Experimental: as §1, §2
# [25] = test system: TK-10; experiment: NCI one-dose SRB assay (Renal Cancer); conditions: for inhibition at 10 µM: Homo sapiens, TK-10, 10 μM, read-out: Percentage growth inhibition (GI%); for Growth Percent: TK-10, 1.00E-5 Molar
# Experimental: as §1, §2
# [26] = test system: UO-31; experiment: NCI one-dose SRB assay (Renal Cancer); conditions: for inhibition at 10 µM: Homo sapiens, UO-31, 10 μM, read-out: Percentage growth inhibition (GI%); for Growth Percent: UO-31, 1.00E-5 Molar
# Experimental: as §1, §2
# [27] = test system: DU-145; experiment: NCI one-dose SRB assay (Prostate); conditions: for Growth Percent: DU-145, 1.00E-5 Molar; for inhibition at 10 µM: Homo sapiens, DU-145, 10 μM, read-out: Percentage growth inhibition (GI%)
# Experimental: as §1, §2
# [28] = test system: PC-3; experiment: NCI one-dose SRB assay (Prostate); conditions: for inhibition at 10 µM: Homo sapiens, PC-3, 10 μM, read-out: Percentage growth inhibition (GI%); for Growth Percent: PC-3, 1.00E-5 Molar
# Experimental: as §1, §2
compound,measurement,setting,value
"COc1ccc(-c2ccc(NC(=O)Nc3ccc(Cl)c(C(F)(F)F)c3)c(C)n2)cc1 [Compound 8e, 1-(4-Chloro-3-(trifluoromethyl)phenyl)-3-(6-(4-methoxyphenyl)-2-methylpyridin-3-yl)urea]",inhibition at 10 µM,[1],49%
same,Mean Growth Percent,[1],51.42%
same,Growth Percent,[2],29.88%
same,inhibition at 10 µM,[2],71%
same,Growth Percent,[3],32.27%
same,inhibition at 10 µM,[3],68%
same,inhibition at 10 µM,[4],84%
same,Growth Percent,[4],16.70%
same,inhibition at 10 µM,[5],76%
same,Growth Percent,[5],24.60%
same,inhibition at 10 µM,[6],91%
same,Growth Percent,[6],9.87%
same,Growth Percent,[7],35.68%
same,inhibition at 10 µM,[7],65%
same,Growth Percent,[8],38.71%
same,inhibition at 10 µM,[8],62%
same,Growth Percent,[9],49.19%
same,inhibition at 10 µM,[9],51%
same,Growth Percent,[10],62.10%
same,inhibition at 10 µM,[10],38%
same,Growth Percent,[11],27.03%
same,inhibition at 10 µM,[11],73%
same,inhibition at 10 µM,[12],35%
same,Growth Percent,[12],65.24%
same,inhibition at 10 µM,[13],70%
same,Growth Percent,[13],30.94%
same,Growth Percent,[14],71.44%
same,inhibition at 10 µM,[14],29%
same,inhibition at 10 µM,[15],70%
same,Growth Percent,[15],30.90%
same,inhibition at 10 µM,[16],76%
same,Growth Percent,[16],24.81%
same,Growth Percent,[17],64.51%
same,inhibition at 10 µM,[17],36%
same,Growth Percent,[18],82.56%
same,inhibition at 10 µM,[18],18%
same,inhibition at 10 µM,[19],29%
same,Growth Percent,[19],71.43%
same,inhibition at 10 µM,[20],43%
same,Growth Percent,[20],57.07%
same,Growth Percent,[21],56.08%
same,inhibition at 10 µM,[21],44%
same,Growth Percent,[22],57.74%
same,inhibition at 10 µM,[22],43%
same,inhibition at 10 µM,[23],19%
same,Growth Percent,[23],81.37%
same,Growth Percent,[24],57.41%
same,inhibition at 10 µM,[24],43%
same,inhibition at 10 µM,[25],35%
same,Growth Percent,[25],65.92%
same,inhibition at 10 µM,[26],61%
same,Growth Percent,[26],39.33%
same,Growth Percent,[27],54.52%
same,inhibition at 10 µM,[27],46%
same,inhibition at 10 µM,[28],86%
same,Growth Percent,[28],14.67%
"COc1ccc(-c2ccc(NC(=O)Nc3cccc(C(F)(F)F)c3)c(C)n2)cc1OC [Compound 8i, 1-(6-(3,4-Dimethoxyphenyl)-2-methylpyridin-3-yl)-3-(3-(trifluoromethyl)phenyl) Urea]",inhibition at 10 µM,[1],22 to 34%
same,Mean Growth Percent,[1],67.33%
same,Growth Percent,[2],50.94%
same,inhibition at 10 µM,[2],50%
same,Growth Percent,[3],61.08%
same,inhibition at 10 µM,[3],39%
same,inhibition at 10 µM,[4],69%
same,Growth Percent,[4],31.93%
same,inhibition at 10 µM,[5],61%
same,Growth Percent,[5],39.58%
same,inhibition at 10 µM,[6],66%
same,Growth Percent,[6],34.61%
same,Growth Percent,[7],51.13%
same,inhibition at 10 µM,[7],49%
same,Growth Percent,[8],60.26%
same,inhibition at 10 µM,[8],40%
same,Growth Percent,[9],66.90%
same,inhibition at 10 µM,[9],34%
same,Growth Percent,[10],92.32%
same,inhibition at 10 µM,[10],< 10%
same,Growth Percent,[11],55.33%
same,inhibition at 10 µM,[11],45%
same,inhibition at 10 µM,[12],28%
same,Growth Percent,[12],72.63%
same,inhibition at 10 µM,[13],29%
same,Growth Percent,[13],71.94%
same,Growth Percent,[14],92.59%
same,inhibition at 10 µM,[14],< 10%
same,inhibition at 10 µM,[15],39%
same,Growth Percent,[15],61.77%
same,inhibition at 10 µM,[16],60%
same,Growth Percent,[16],40.25%
same,Growth Percent,[17],70.96%
same,inhibition at 10 µM,[17],30%
same,Growth Percent,[18],95.26%
same,inhibition at 10 µM,[18],< 10%
same,inhibition at 10 µM,[19],25%
same,Growth Percent,[19],75.52%
same,inhibition at 10 µM,[20],19%
same,Growth Percent,[20],81.62%
same,Growth Percent,[21],69.08%
same,inhibition at 10 µM,[21],31%
same,Growth Percent,[22],61.34%
same,inhibition at 10 µM,[22],39%
same,inhibition at 10 µM,[23],23%
same,Growth Percent,[23],77.55%
same,Growth Percent,[24],79.32%
same,inhibition at 10 µM,[24],21%
same,inhibition at 10 µM,[25],21%
same,Growth Percent,[25],79.75%
same,inhibition at 10 µM,[26],26%
same,Growth Percent,[26],74.95%
same,Growth Percent,[27],82.57%
same,inhibition at 10 µM,[27],18%
same,inhibition at 10 µM,[28],73%
same,Growth Percent,[28],27.45%
